Reference: PubChem BioAssay (NCI)
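Protocol summary: plate cells (96-well), add compound at 5 concentrations, incubate 48 h, interpolate endpoints linearly. GI50 marks 50% less growth. At the TGI there is no net growth.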

Legend:
Assay in all cases: growth of human tumour cells (NCI), 48 h
[1] = tested on: MCF7 breast
[2] = tested on: UACC-257 melanoma
[3] = tested on: IGROV1 ovarian
[4] = tested on: DU-145 prostate
[5] = tested on: NCI/ADR-RES ovarian
[6] = tested on: MALME-3M melanoma
[7] = tested on: HL-60(TB) leukemia
[8] = tested on: BT-549 breast
[9] = tested on: SNB-75 CNS
[10] = tested on: A549 NSCLC
[11] = tested on: OVCAR-5 ovarian
[12] = tested on: TK-10 renal
[13] = tested on: NCI-H460 lung
[14] = tested on: MDA-MB-231 breast
[15] = tested on: HS 578T breast
[16] = tested on: M14 melanoma
[17] = tested on: EKVX NSCLC
[18] = tested on: KM12 colon
[19] = tested on: RPMI-8226 leukemia
[20] = tested on: NCI-H522 lung
[21] = tested on: SK-MEL-5 melanoma
[22] = tested on: HCT-15 colon
[23] = tested on: SF-295 CNS
[24] = tested on: ACHN renal
[25] = tested on: HOP-62 NSCLC
[26] = tested on: SK-MEL-2 melanoma
[27] = tested on: SK-OV-3 ovarian
[28] = tested on: MOLT-4 leukemia

COc1cc(NC(C)CCCN)c2nccc(C)c2c1OC (stereo unspecified)
GI50 [1]: 0.372 µM | TGI [1]: 1.71 µM | GI50 [2]: 13.7 µM | TGI [2]: 29.4 µM | GI50 [3]: 4.01 µM | TGI [3]: 22.7 µM | GI50 [4]: 15.3 µM | TGI [4]: 28.6 µM | GI50 [5]: 20.5 µM | TGI [5]: 74.6 µM | GI50 [6]: 2.84 µM | TGI [6]: 9.84 µM | GI50 [7]: 4.56 µM | TGI [7]: 16.8 µM | GI50 [8]: 16 µM | TGI [8]: 30.2 µM | GI50 [9]: 14.1 µM | TGI [9]: 29.4 µM | GI50 [10]: 22.8 µM | TGI [10]: 58.5 µM | GI50 [11]: 16.1 µM | TGI [11]: 42.1 µM | GI50 [12]: 19.8 µM | TGI [12]: 45.8 µM | GI50 [13]: 14.1 µM | TGI [13]: 29.5 µM | GI50 [14]: 8.18 µM | TGI [14]: 25.3 µM | GI50 [15]: 8.5 µM | TGI [15]: 35.4 µM | GI50 [16]: 2.97 µM | TGI [16]: 12.7 µM | GI50 [17]: 18 µM | TGI [17]: 33.8 µM | GI50 [18]: 16.7 µM | TGI [18]: 35.1 µM | GI50 [19]: 5.67 µM | TGI [19]: 23.2 µM | GI50 [20]: 5.28 µM | TGI [20]: 19.6 µM | GI50 [21]: 3.97 µM | TGI [21]: 15.7 µM | GI50 [22]: 11.5 µM | TGI [22]: 24.5 µM | GI50 [23]: 17 µM | TGI [23]: 32.5 µM | GI50 [24]: 20.7 µM | TGI [24]: 50.1 µM | GI50 [25]: 11.1 µM | TGI [25]: 28 µM | GI50 [26]: 18.8 µM | TGI [26]: 49.8 µM | GI50 [27]: 18.6 µM | TGI [27]: 57.1 µM | GI50 [28]: 15.3 µM | TGI [28]: 42.1 µM
